Experiment: Log P by HPLC on reversed phase columns (EEC directive 79/831 Annex V.A8)
Format: physicochemical
Details: Table 1; method [a]: LC-UV, acidic range, 0.1% formic acid in water and acetonitrile as eluent
Experimental: Measurement of Log P values was performed according to EEC directive 79/831 Annex V.A8 by HPLC (High Performance Liquid Chromatography) on reversed phase columns with the following methods: • ^[a] Log P value is determined by measurement of LC-UV, in an acidic range, with 0.1% formic acid in water and acetonitrile as eluent (linear gradient from 10% acetonitrile to 95% acetonitrile). • ^[b] Log P value is determined by measurement of LC-UV, in a neutral range, with 0.001 molar ammonium acetate solution in water and acetonitrile as eluent (linear gradient from 10% acetonitrile to 95% acetonitrile). • ^[c] Log P value is determined by measurement of LC-UV, in an acidic range, with 0.1% phosphoric acid and acetonitrile as eluent (linear gradient from 10% acetonitrile to 95% acetonitrile).
If more than one Log P value is available within the same method, all the values are given and separated by “+”.
Calibration was done with straight-chain alkan-2-ones (with 3 to 16 carbon atoms) with known Log P values (measurement of Log P values using retention times with linear interpolation between successive alkanones).

Row | LogP | SMILES | chromatographic logP
1 | 3.64^[a] | CC1COC(Cn2cncc2Cl)(c2ccc(Oc3ccc(Cl)cc3)cc2Cl)O1 (mixture of isomers) [Compound I-09] | –
2 | 3.68^[a] | CC1COC(Cn2cncc2Br)(c2ccc(Oc3ccc(Cl)cc3)cc2Cl)O1 (racemic) [Compound I-23] | –
3 | 3.15 ^[a] | C#Cc1cncn1CC1(c2ccc(Oc3ccc(Cl)cc3)cc2Cl)OCC(C)O1 (racemic) [Compound I-26] | –
4 | 3.85 ^[a] | CC1COC(Cn2cncc2Br)(c2ccc(Oc3ccc(C(F)(F)F)cc3)cc2Cl)O1 (racemic) [Compound I-31] | –
5 | 3.82^[a] | Clc1cc(Oc2ccc(I)cc2)ccc1C1(Cn2cncc2Cl)OCCO1 [Compound I-03] | –
6 | 2.58^[a] | FC(F)(F)c1cc(Oc2ccc(Cl)nc2)ccc1C1(Cn2cncc2Cl)OCCO1 [Compound I-05] | –
7 | 3.77^[a] | FC(F)(F)c1cc(Oc2ccc(Br)cc2)ccc1C1(Cn2cncc2Cl)OCCO1 [Compound I-06] | –
8 | 3.53^[a] | Clc1cc(Oc2ccc(Br)cc2)ccc1C1(Cn2cncc2Cl)OCCO1 [Compound I-07] | –
9 | 3.76^[a] | Clc1cc(Oc2ccc(I)cc2)ccc1C1(Cn2cncc2Br)OCCO1 [Compound I-08] | –
10 | 4.64^[a] | FC(F)(F)c1cncn1CC1(c2ccc(Oc3ccc(Cl)cc3)cc2Cl)OCCO1 [Compound I-10] | –
11 | 2.88^[a] | Fc1cncn1CC1(c2ccc(Oc3ccc(Cl)cc3)cc2Cl)OCCO1 [Compound I-11] | –
12 | 2.42^[a] | Clc1ccc(Oc2ccc(C3(Cn4cncc4Cl)OCCO3)c(Cl)c2)cn1 [Compound I-13] | –
13 | 2.66^[a] | Clc1ccc(Oc2ccc(C3(Cn4cncc4Cl)OCCO3)c(Cl)c2)nc1 [Compound I-14] | –
14 | 3.06^[a] | Fc1cncn1CC1(c2ccc(Oc3ccc(Cl)cc3)cc2C(F)(F)F)OCCO1 [Compound I-15] | –
15 | 2.78^[a] | Fc1cncn1CC1(c2ccc(Oc3ccc(Br)cc3)nc2C(F)(F)F)OCCO1 [Compound I-16] | –
16 | 2.34^[a] | Fc1nc(Oc2ccc(Cl)cc2)ccc1C1(Cn2cncc2F)OCCO1 [Compound I-17] | –
17 | 2.17^[a] | Fc1cncn1CC1(c2ccc(Oc3ccc(Br)nc3)nc2C(F)(F)F)OCCO1 [Compound I-20] | –
18 | 3.48^[a] | Clc1cc(Oc2ccc(Br)cc2)ccc1C1(Cn2cncc2Br)OCCO1 [Compound I-21] | –
19 | 2.94^[a] | C#Cc1cncn1CC1(c2ccc(Oc3ccc(Cl)cc3)cc2Cl)OCCO1 [Compound I-22] | –
20 | 4.98 ^[a] | C[Si](C)(C)C#Cc1ccc(Oc2ccc(C3(Cn4cncc4Br)OCCO3)c(Cl)c2)cc1 [Compound I-24] | –
21 | 2.76 ^[a] | C#Cc1ccc(Oc2ccc(C3(Cn4cncc4C#C)OCCO3)c(Cl)c2)cc1 [Compound I-25] | –
22 | 3.58 ^[a] | FC(F)(F)c1cc(Oc2ccc(Cl)cc2)ccc1C1(Cn2cncc2Br)OCCO1 [Compound I-27] | –
23 | 3.13 ^[a] | C#Cc1cncn1CC1(c2ccc(Oc3ccc(Cl)cc3)cc2C(F)(F)F)OCCO1 [Compound I-28] | –
24 | 3.44 ^[a] | FC(F)(F)c1ccc(Oc2ccc(C3(Cn4cncc4Br)OCCO3)c(Cl)c2)cc1 [Compound I-29] | –
25 | – | C#Cc1cncn1CC1(c2ccc(Oc3ccc(C(F)(F)F)cc3)cc2Cl)OCCO1 [Compound I-30, 1-[(2-{2-chloro-4-[4-(trifluoromethyl)phenoxy]phenyl}-1,3-dioxolan-2-yl)methyl]-5-ethynyl-1H-imidazole] | 3.04
26 | 3.78 ^[a] | N#Cc1cncn1CC1(c2ccc(Oc3ccc(Cl)cc3)cc2Cl)OCCO1 [Compound I-33] | –
27 | 3.92 ^[a] | N#Cc1cncn1CC1(c2ccc(Oc3ccc(C(F)(F)F)cc3)cc2Cl)OCCO1 [Compound I-34] | –
28 | 4.03 ^[a] | N#Cc1cncn1CC1(c2ccc(Oc3ccc(Cl)cc3)cc2C(F)(F)F)OCCO1 [Compound I-35] | –

Same assay, conditions: Table 2 (I-RP compounds); method [a]: LC-UV, acidic range, 0.1% formic acid in water and acetonitrile as eluent

Row | LogP | SMILES | chromatographic logP
29 | 4.90 ^[a] | CC1COC(Cn2cncc2C#C[Si](C)(C)C)(c2ccc(Oc3ccc(Cl)cc3)cc2Cl)O1 (racemic) [I-RP-03] | –
30 | 4.54 ^[a] | C[Si](C)(C)C#Cc1cncn1CC1(c2ccc(Oc3ccc(Cl)cc3)cc2Cl)OCCO1 [I-RP-01] | –
31 | 6.17 ^[a] | C[Si](C)(C)C#Cc1ccc(Oc2ccc(C3(Cn4cncc4C#C[Si](C)(C)C)OCCO3)c(Cl)c2)cc1 [I-RP-02] | –
32 | 4.67 ^[a] | C[Si](C)(C)C#Cc1cncn1CC1(c2ccc(Oc3ccc(Cl)cc3)cc2C(F)(F)F)OCCO1 [I-RP-04] | –
33 | – | C[Si](C)(C)C#Cc1cncn1CC1(c2ccc(Oc3ccc(C(F)(F)F)cc3)cc2Cl)OCCO1 [I-RP-05, 1-[(2-{2-chloro-4-[4-(trifluoromethyl)phenoxy]phenyl}-1,3-dioxolan-2-yl)methyl]-5-[(trimethylsilyl)ethynyl]-1H-imidazole] | 4.59

Same assay, conditions: reversed phase HPLC columns; Table 1; method [a]: LC-UV, acidic range, 0.1% formic acid in water and acetonitrile as eluent

Row | chromatographic logP | SMILES
34 | 3.29 | Clc1ccc(Oc2ccc(C3(Cn4cncc4Cl)OCCO3)c(Cl)c2)cc1 [Compound I-01, 5-chloro-1-[[2-[2-chloro-4-(4-chlorophenoxy)phenyl]-1,3-dioxolan-2-yl]methyl]imidazole]
35 | 3.35 | Clc1ccc(Oc2ccc(C3(Cn4cncc4Br)OCCO3)c(Cl)c2)cc1 [Compound I-02, 5-bromo-1-[[2-[2-chloro-4-(4-chlorophenoxy)phenyl]-1,3-dioxolan-2-yl]methyl]imidazole]
36 | 3.75 | FC(F)(F)c1cc(Oc2ccc(Cl)cc2)ccc1C1(Cn2cncc2Cl)OCCO1 [Compound I-04, 5-chloro-1-[[2-[4-(4-chlorophenoxy)-2-(trifluoromethyl)phenyl]-1,3-dioxolan-2-yl]methyl]imidazole]
37 | 3.06 | CC1COC(Cn2cncc2F)(c2ccc(Oc3ccc(Cl)cc3)cc2Cl)O1 (stereo not shown) [Compound I-12, 1-[[2-[2-chloro-4-(4-chlorophenoxy)phenyl]-4-methyl-1,3-dioxolan-2-yl]methyl]-5-fluoro-imidazole]
38 | 2.42 | Fc1cncn1CC1(c2ccc(Oc3ccc(Cl)cc3)nc2C(F)(F)F)OCCO1 [Compound I-18, 6-(4-chlorophenoxy)-3-[2-[(5-fluoroimidazol-1-yl)methyl]-1,3-dioxolan-2-yl]-2-(trifluoromethyl)pyridine]
39 | 2.53 | Fc1cncn1CC1(c2ccc(Oc3ccc(C(F)(F)F)nc3)nc2C(F)(F)F)OCCO1 [Compound I-19, 3-[2-[(5-fluoroimidazol-1-yl)methyl]-1,3-dioxolan-2-yl]-2-(trifluoromethyl)-6-[[6-(trifluoromethyl)-3-pyridyl]oxy]pyridine]
40 | 4.08 | CC1COC(Cn2cncc2C#N)(c2ccc(Oc3ccc(C(F)(F)F)cc3)cc2Cl)O1 (stereo not shown) [Compound I-32, 1-{[2-{2-chloro-4-[4-(trifluoromethyl)phenoxy]phenyl}-4-methyl-1,3-dioxolan-2-yl]methyl}-1H-imidazole-5-carbonitrile]

— patent US20200029563A1, “NOVEL 5-SUBSTITUTED IMIDAZOLYLMETHYLDIOXOLANE DERIVATIVES” (Bayer CropScience Aktiengesellschaft, priority 2016, published 2020)
